How the values were obtained:
[1] = for reference; cited from earlier work
[2] = system: Myh2a-positive muscle fibers; assay: Myh2a immunostaining of hind limb muscles, high fat diet (PGC-1α-inhibited) model; format: in vivo, mouse; conditions: high fat diet with 0.5% compound, 3 months
Excerpt: (§1) To prepare the PGC-1α-inhibited model, 3-month-old mouse (female, body weight of 20 g) is fed with high fat diet, in which fat is increased to 60%, compared to a negative control group, for 5 days (short-term effect) or 3 months (long-term effect). The negative control group is fed with a general diet. Farnesol is mixed in the high fat diet at a content of 0.5% (weight of farnesol/weight of diet). A positive control group is fed with high fat diet containing a type II diabetes drug, metformin at a content of 0.5% (weight of metformin/weight of diet). Mice are fed with the general diet, the high fat diet, and the high fat diet containing farnesol or metformin for 3 months, and then hind limbs are removed to analyze muscle differentiation and mitochondrial enzyme activity.
In FIG. 6C, SD represents a standard diet as a negative control group, HFD represents a high fat diet, and HFD+Farnesol or HFD-metformin represents farnesol or metformin-added HFD, respectively.

[3] = system: SDH enzyme activity; assay: SDH staining of hind limb muscles, high fat diet model; format: in vivo, mouse; conditions: high fat diet with 0.5% compound, 3 months
Excerpt: as §1

[4] = system: PARIS, PGC-1α; assay: Immunoprecipitation for PGC-1α expression and PARIS-farnesylation, short-term high fat diet; format: in vivo, mouse; conditions: high fat diet with 0.5% compound, 5 days, gastrocnemius muscles
Excerpt: as §1
The effects of high fat diet and farnesol and metformin on PGC-1α induction by PARIS-farnesylation are evaluated. To analyze effect of short-term high fat diet, mice are fed with the above conditions for 5 days. Immunoblotting of PGC-1α and PARIS in gastrocnemius muscles of the mice is performed.
In this regard, PARIS-farnesylation is normalized to the immunoprecipitated PARIS expression level.

[5] = system: PARIS, PGC-1α; assay: Western blotting of hind limb muscles, high fat diet for 3 months; format: in vivo, mouse; conditions: high fat diet with 0.5% compound
Excerpt: as §1

SMILES	ID50 [1] [mg/kg]	percentage of Myh2a-postive muscle fibers [2]	percentage of muscle fibers showing increased SDH enzyme activity [3]	reduction in PARIS-farnesylation by high fat diet [4]	reduction in PGC-1α expression by high fat diet [4]	decreased PGC-1α expression by high fat diet [5]	increased PARIS level by high fat diet [5]
CC(=O)Oc1ccccc1C(=O)O [aspirin]	250						
CN(C)C(=N)N=C(N)N [metformin, reference compound]		significantly increases	increased	inhibited	inhibited	inhibited	inhibited

— US10780061B2, “Composition comprising farnesol and use thereof” (Daegu Gyongbuk Institute of Science and Technology, priority 2014, dated 2020)
